From article PMC6235670, “An mTOR Signaling Modulator Suppressed Heterotopic Ossification of Fibrodysplasia Ossificans Progressiva” (Stem Cell Reports, 2018)

Key:
mTOR signaling (p-S6) [1] = assay: p-S6 western blotting during chondrogenic induction of FOP-iMSCs with activin A; format: cell-based, human; settings: 1 μM
Experimental: Western blotting. SDS- PAGE and blotting with whole-cell lysates were performed by standard procedures.
Protein bands were detected with ECL Prime Western Blotting Detection Reagent (GE Healthcare) and visualized using BIO-RAD Molecular Imager® Chemi-DocTM XRS+ with Image LabTM software (Bio-Rad).
All data (relative intensity) were corrected by β-actin.
Antibodies for western blotting and immunostaining.
N ame Company Cat. No Concentration
Human Activin RIA/ALK-2 Antibody R&D Systems) AF637 1:100
Anti-human Vimentin antibody Abcam ab16700 1:40
Collagen I Antibody Novus NB600- 1:100
Anti-rabbit IgG, HRP-linked Antibody Cell Signaling #7074 1:10000 […]
2nd Goat anti-Rabbit IgG (H+L) Secondary Antibody, Invitrogen A-11008 1:100 antibody Alexa Fluor® 488 conjugate
Goat anti-Rabbit IgG (H+L) Secondary Antibody, Invitrogen A-21428 1:500

mTOR signaling (p-S6) [2] = assay: p-S6 western blotting in FOP-iMSCs cultured with 10% FBS; format: cell-based, human; settings: 100 nM, 2 hr
Experimental: time point t = 24 h from t = 0 h, and relative cell migration was expressed as the ratio of the absolute cell migrations between the experimental and control groups by using CL-Quant software (Nikon Corp.).
Quantitative PCR analysis. Total RNA was purified with RNeasy Kit (Qiagen) and treated with DNase -one Kit (Qiagen) to remove genomic DNA. Total RNA (0.3 µg) was reverse transcribed for single-stranded cDNA using random primers and Superscript III reverse transcriptase (Thermo Fisher Scientific) according to the manufacturer’s instructions. Quantitative PCR was performed with Thunderbird SYBR qPCR Mix (TOYOBO) and analyzed with the StepOne real-time PCR system (Applied Biosystems). […]
Microarray experiments. 2D chondrogenic induction was performed in FOP-iMSCs stimulated with or without 100 ng/mL Activin-A, TAK 165, CP-724714 and Lapatinib. […] Raw CEL files were imported into GeneSpring GX 12.6.1 software (Agilent Technologies), and expression values were calculated with the RMA16 algorithm. […]
Protein bands were detected with ECL Prime Western Blotting Detection Reagent (GE Healthcare) and visualized using BIO-RAD Molecular Imager® Chemi-DocTM XRS+ with Image LabTM software (Bio-Rad). […]
GAG value. The GAG content was quantified in pellets with the Blyscan Glycosaminoglycan Assay Kit (Biocolor). The DNA content was quantified using PicoGreen dsDNA Quantitation Kit (Thermo Fisher […]

BMP signaling (BRE-Luc) = assay: BRE-Luc reporter assay in FOP-iMSCs; format: cell-based, human; settings: activin A and compounds for 16 hr
Experimental: FOP-iMSCs transiently transfected with BRE-Luc (A) or CAGA-Luc (B) with CMV-Renilla were stimulated with activin A and compounds for 16 hr (A) or 3 hr (B). […] One day after siRNA transfection, chondrogenic induction with activin A was initiated, and after 7 days the cells were harvested. […] FOP-iMSCs cultured with 10% FBS were treated with 100 nM rapamycin (Rapa) or TAK 165 (TAK) for 2 hr, and the cells were harvested. […] 1 μM TAK, 1 μM CP (CP-724714, another selective ERBB2 inhibitor), or 10 nM Rapa were applied in the experiments.

FOP-iMSCs = assay: 2D chondrogenic induction of FOP-iMSCs with activin A (GAG, Alcian blue); format: cell-based, human
[3] = AlamarBlue viability assay in ATDC5/FOP-ACVR1; settings: mouse
Experimental: Generation of ATDC5 stably expressing ACVR1. WT - or FOP-ACVR1 was inserted into doxycycline (Dox)- […]
(KW111/WT-ACVR1 or KW111/FOP-ACVR1). KW111/WT-ACVR1 or KW111/FOP-ACVR1 and PBaseII […]
FuGeneHD® (Promega) according to the manufacturer’s protocol, and the neomycin- resistant population (500 µg/mL) was selected. Further selection was performed by selecting a mCherry high positive population (< 5%) after six hours of Dox treatment, sorting it with fluorescent-activated cell sorting (FACS) using AriaII (BD) according to the manufacturer’s protocol, and designating it as ATDC5/WT-ACVR1 or ATDC5/FOP-ACVR1.
KW111 included PB, active transposable PB elements; TRE-mCMVP, Tetracycline Response Element and a minimal CMV promoter; rtTA, reverse tetracycline-controlled transactivator. PBaseII was an expression plasmid vector containing the PB transposase cDNA with optimized codon usage to human under the control […]
HTS campaign and follow-up screens. ATDC5/FOP-ACVR1 cells were plated in 96-well white plates (2,000 cells/well/40 µ L, Corning) in DMEM/F-12 supplemented with 5% (v/v) FBS. […]
37 °C under 5% CO2. After 3 days incubation, Alkaline Phosphatase activity (ALP) or AlamarBlue activity was measured using Amplite™ Colorimetric Alkaline Phosphatase Assay Kit (AAT Bioquest) or alamarBlue® Cell Viability Reagent (Thermo Fisher Scientific) according to the manufacturer’s protocol, respectively. T h e […]
was measured on POWERSCAN4 (DS Pharma Biomedical) or EnVision® Multilabel Reader (PerkinElmer).
Inhibitory effects of the screened compounds are given as percent inhibition, which was calculated using the following equation: (1-([Abs of compound] - [Abs of Min])/([Abs of Max] - [Abs of Min]))× 100, where [Abs of Max] and [Abs of Min] are the mean Abs of DMSO control and 1 µM DMH-1, respectively. The Z’ factor, which is widely used as a measure of the assay quality of each plate, was calculated using the following equation: Z’ factor = 1 - 3 × ([SD of Max] + [SD of Min])/([Abs of Max] - [Abs of Min]) (SI Appendix, Fig.
The S/B (signal-to-background) ratio was calculated using the following equation: ([Abs of Max]/[Abs of Min]) (SI Appendix, Fig. S3B).
Using ATDC5/FOP-ACVR1 cells, we performed a first screening (n=2; test compounds = 1 µM, Fig. […]

FC(F)(F)c1ccc(/C=C/c2nc(COc3ccc(CCCCn4ccnn4)cc3)co2)cc1 [TAK 165, mubritinib]
p-S6 after 24-hr stimulation (mTOR signaling (p-S6) [1]; 24 hr): no effects
p-S6 after 7 days of stimulation (mTOR signaling (p-S6) [1]; 7 days): dramatically decreased
p-S6 levels (direct mTOR inhibition) (mTOR signaling (p-S6) [2]): did not
BRE-Luc (BMP-specific luciferase reporter) (BMP signaling (BRE-Luc)): did not affect
inhibition of glycosaminoglycan (GAG) production (FOP-iMSCs; 1 μM, activin A, 7 days): potent inhibition
suppression of chondrogenic induction (GAG), dose dependence (FOP-iMSCs; activin A, 7 days): dose-dependent
Alcian blue staining (FOP-iMSCs; compared with other HTS hits): obviously different effects
viability at 3 days, 10 µM [3]: 117%
